Patent US20060247311A1, “Methods for treating lower urinary tract disorders using alpha2delta subunit calcium channel modulators with smooth muscle modulators” (priority 2003, published 2006)
Where “and” joins values, the source holds several entries; their conditions need not be identical. Identical values can stand only once.

Assays:
[1] = system: α2δ subunit of calcium channels; settings: Bryans et al. (1999); cited from earlier work
[2] = preclinical and clinical studies, in contrast to gabapentin itself, cited from earlier work
[3] = system: bladder instability and bladder capacity in SCI rats; settings: SCI rats (Cheng et al., 1995); cited from earlier work
[4] = system: reduction in bladder capacity following continuous infusion of dilute acetic acid; test: Dilute acetic acid model in cats (bladder capacity, voiding efficiency); type: in vivo; settings: cat, gabapentin 30 mg/kg dose alone
Protocol: The objective of this study was to determine the ability of an α2δ subunit calcium channel modulator in combination with a smooth muscle modulator to reverse the reduction in bladder capacity seen following continuous infusion of dilute acetic acid in a cat model, a commonly used model of overactive bladder.
Alpha-chloralose anesthetized (50-100 mg/kg) normal female cats (2.5-3.5 kg; Harlan) were utilized in this study.
Animals were dosed by volume of injection=body weight in kg.
Female cats (2.5-3.5 kg; Harlan) had their food removed the night before the experiment. The following morning, the cat was anesthetized with isoflurane and prepped for surgery using aseptic technique. Polyethylene catheters were surgically placed to permit the measurement of bladder pressure, urethral pressure, arterial pressure, respiratory rate as well as for the delivery of drugs. Fine wire electrodes were implanted alongside the external urethral anal sphincter. Following surgery, the cats were slowly switched from the gas anesthetic isoflurane (2-3.5%) to alpha-chloralose (50-100 mg/kg). During control cystometry, saline was slowly infused into the bladder (0.5-1.0 m/min) for 1 hour. […] After assessing the cystometric variables under these baseline conditions, the effects of test drug(s) on micturition were determined via a 3-5 point dose response protocols. […]

[5] = system: reduction in bladder capacity following continuous infusion of dilute acetic acid; test: Dilute acetic acid model, acute anesthetized in vivo model (bladder capacity by cystometry); settings: rat, isobologram construction, i.v.; both drugs alone and low-dose combinations
Excerpt: Urethane anesthetized (1.2 g/kg) normal female rats were utilized in this study.
Animal Preparation: Female rats (250-300 g body weight) were anesthetized with urethane (1.2 g/kg) and a saline-filled catheter (PE-50) was inserted into the jugular vein for intravenous drug administration. […] The abdominal cavity was moistened with saline and closed by covering with a thin plastic sheet in order to maintain access to the bladder for emptying purposes. Fine silver or stainless steel wire electrodes were inserted into the external urethral sphincter (EUS) percutaneously for electromyography (EMG).
Following 30 minutes of AA infusion, 3 vehicle injections were made at 20 minute intervals to determine vehicle effects, if any.
P<0.050 was considered significant.

[6] = in vivo; settings: female, rat, iv; for AUC(0-t): AUC0-t (Mean); for Cmax: Cmax (Mean); for Vd: Vz (Mean); for half-life: t1/2 (Mean)
[7] = 100 mg/kg, gabapentin in rat plasma after 100 mg/kg gabapentin i.v., alone (Gab) or with 3 mg/kg oxybutynin (Com), group Mean, outliers excluded
[8] = 100 mg/kg, gabapentin in rat plasma after 100 mg/kg gabapentin i.v., alone (Gab) or with 3 mg/kg oxybutynin (Com), group Mean
[9] = female, rat, in vivo, iv, 3 mg/kg

In the case of `CC(C)C[C@H](CN)CC(=O)O` [Pregabalin, (S)-(3-aminomethyl)-5-methylhexanoic acid], the “binding affinity for the α2δ subunit of calcium channels compared with gabapentin” value [1] is listed as “even higher binding affinity”.
For `CC(OC(=O)NCC1(CC(=O)O)CCCCC1)OC(=O)C(C)C` (stereo not drawn) [XP13512], the “blood levels of gabapentin across a broad range of oral doses” value ([2]; oral) is given as “dose proportional blood levels of gabapentin” and the “absorption from the large intestine” value [2] is given as “absorbed efficiently from the large intestine”.
For `COc1cc(CNC(=O)CCCC/C=C/C(C)C)ccc1O` [capsaicin], the “bladder capacity to voiding” value [3] is given as “not effect bladder capacity to voiding” and the bladder instability [3] is given as “reduce bladder instability”.
In the case of `NCC1(CC(=O)O)CCCCC1` [gabapentin, 1-(aminomethyl) cyclohexaneacetic acid], the “effect on bladder capacity” value [4] is reported as “no significant effect”, the “common maximal effect / target value, return to % of saline control bladder capacity (individual responses)” value [5] is reported as 31 % of saline control and the “common maximal effect, return to % of saline control bladder capacity (group mean data)” value [5] is reported as 43 % of saline control. The AUC(0-t) [6, 7] was 158 µg·h/mL, the AUC(0-inf) ([6]; 100 mg/kg, AUC0-∞ (Mean), gabapentin in rat plasma after 100 mg/kg gabapentin i.v., alone (Gab) or with 3 mg/kg oxybutynin (Com), group Mean) was 270 µg·h/mL and the AUC(0-inf) ([6]; 100 mg/kg, AUC0-∞, gabapentin in rat plasma after 100 mg/kg gabapentin i.v., alone (Gab) or with 3 mg/kg oxybutynin (Com), individual animals) was 325 µg·h/mL. It also gave a clearance ([6]; 100 mg/kg, CL (Mean), gabapentin in rat plasma after 100 mg/kg gabapentin i.v., alone (Gab) or with 3 mg/kg oxybutynin (Com), group Mean) of 6.52 mL/min/kg, a clearance ([6]; 100 mg/kg, CL, gabapentin in rat plasma after 100 mg/kg gabapentin i.v., alone (Gab) or with 3 mg/kg oxybutynin (Com), individual animals) of 5.12 mL/min/kg and a Cmax [6, 7] of 98600 ng/mL. The Tmax ([6]; 100 mg/kg, Tmax, gabapentin in rat plasma after 100 mg/kg gabapentin i.v., alone (Gab) or with 3 mg/kg oxybutynin (Com), individual animals) was 15 min, the Vd [6, 8] was 1.24 L/kg and the half-life [6, 8] was 128 min. For the same compound, the “AUC0-∞” value (gabapentin in rat plasma after 100 mg/kg gabapentin i.v., alone (Gab) or with 3 mg/kg oxybutynin (Com), individual animals, listed as Gab) was 1.37e+07 ng·min/mL and 2.19e+07 ng·min/mL and 1.44e+07 ng·min/mL.
In the case of `CCN(CC)CC#CCOC(=O)C(O)(c1ccccc1)C1CCCCC1` (stereo not drawn) [oxybutynin, 4-diethylaminio-2-butynyl phenylcyclohexyglycolate], the “common maximal effect / target value, return to % of saline control bladder capacity (individual responses)” value [5] is reported as 31 % of saline control, the “common maximal effect, return to % of saline control bladder capacity (group mean data)” value [5] is reported as 43 % of saline control and the Tmax ([6]; 3 mg/kg) is reported as 15 min. It also gave an AUC(0-t) ([6]; 3 mg/kg) of 0.335 µg·h/mL, an AUC(0-inf) ([6]; 3 mg/kg, AUC0-∞ (Mean)) of 0.41 µg·h/mL and a clearance ([6]; 3 mg/kg, CL (Mean)) of 134 mL/min/kg. The Cmax ([6]; 3 mg/kg) was 329 ng/mL, the Vd ([6]; 3 mg/kg) was 10.1 L/kg and the half-life ([6]; 3 mg/kg) was 54 min. For the same compound, the “AUC0-t (Mean)” value [9] was 144 ng·min/mL, the “AUC0-∞ (Mean)” value [9] was 289 ng·min/mL and the “Vz (Mean)” value [9] was 1310.999 L/kg.
